Assay results: patent EP0140492B1 (WARNER-LAMBERT COMPANY, priority 1983, dated 1985)
Like-named read-outs stand apart in the source and are kept apart here. Marks after values point to notes of the source that are not given here.

Assay: Plasma levels of isoxicam and bioavailability parameters after a single oral dose to beagle dogs
Assay type: in vivo
Conditions: for Plasma levels of isoxicam / Plasma levels of isoxicam, Mean: 100 mg/dog oral (isoxicam equivalents); for AUC(0-inf) / half-life / Cmax / Tmax: dog, in vivo, po, 100 mg; for Tmax: read-out: Tmax; for Plasma levels of isoxicam, Mean: mean of dogs
Method: The range for the individual animals was 51.4 to 63.0 µg/ml with three animals having a peak time of two hours and the final animal at eight hours. These plasma levels were considerably higher when compared to micronized isoxicam. […] Peak plasma concentrations for individual animals ranged from […] between three and six hours postdose.
Areas under the plasma concentrations versus time curve (AUC^0-∞) were calculated using the trapezoidal rule and extrapolated to infinity with the appropriate elimination rate constants.

[1] = Mean of four dogs, oral 100 mg (free acid equivalents)
[2] = dog 1930, oral 100 mg (free acid equivalents)
[3] = dog 1942, oral 100 mg (free acid equivalents)
[4] = dog 117668, oral 100 mg (free acid equivalents)
[5] = dog 120064, oral 100 mg (free acid equivalents)

Cc1cc(NC(=O)C2=C(O)c3ccccc3S(=O)(=O)N2C)no1 [arginine isoxicamate, L-arginine isoxicamate]
Plasma levels of isoxicam (dog 1930, time 0.5 h postdose): 29.6 µg/mL | Plasma levels of isoxicam (dog 1930, time 1.0 h postdose): 43.4 µg/mL | Plasma levels of isoxicam (dog 1930, time 2.0 h postdose): 51.4 µg/mL | Plasma levels of isoxicam (dog 1930, time 3.0 h postdose): 47.5 µg/mL | Plasma levels of isoxicam (dog 1930, time 4.0 h postdose): 48.9 µg/mL | Plasma levels of isoxicam (dog 1930, time 6.0 h postdose): 48.3 µg/mL | Plasma levels of isoxicam (dog 1930, time 8.0 h postdose): 42.6 µg/mL | Plasma levels of isoxicam (dog 1930, time 12.0 h postdose): 37.8 µg/mL | Plasma levels of isoxicam (dog 1930, time 24.0 h postdose): 32.8 µg/mL | Plasma levels of isoxicam (dog 1930, time 32.0 h postdose): 25.2 µg/mL | Plasma levels of isoxicam (dog 1930, time 48.0 h postdose): 25.0 µg/mL | Plasma levels of isoxicam (dog 1930, time 72.0 h postdose): 14.6 µg/mL | Plasma levels of isoxicam (dog 1930, time 96.0 h postdose): 10.2 µg/mL | Plasma levels of isoxicam (dog 1930, time 192.0 h postdose): 1.56 µg/mL | Plasma levels of isoxicam (dog 1930, time 240.0 h postdose): 0.89 µg/mL | Plasma levels of isoxicam (dog 1942, time 0.5 h postdose): 7.99 µg/mL | Plasma levels of isoxicam (dog 1942, time 1.0 h postdose): 28.1 µg/mL | Plasma levels of isoxicam (dog 1942, time 2.0 h postdose): 58.6 µg/mL | Plasma levels of isoxicam (dog 1942, time 3.0 h postdose): 51.7 µg/mL | Plasma levels of isoxicam (dog 1942, time 4.0 h postdose): 53.9 µg/mL | Plasma levels of isoxicam (dog 1942, time 6.0 h postdose): 50.5 µg/mL | Plasma levels of isoxicam (dog 1942, time 8.0 h postdose): 42.2 µg/mL | Plasma levels of isoxicam (dog 1942, time 12.0 h postdose): 39.4 µg/mL | Plasma levels of isoxicam (dog 1942, time 24.0 h postdose): 35.6 µg/mL | Plasma levels of isoxicam (dog 1942, time 32.0 h postdose): 25.7 µg/mL | Plasma levels of isoxicam (dog 1942, time 48.0 h postdose): 25.5 µg/mL | Plasma levels of isoxicam (dog 1942, time 72.0 h postdose): 17.1 µg/mL | Plasma levels of isoxicam (dog 1942, time 96.0 h postdose): 8.96 µg/mL | Plasma levels of isoxicam (dog 1942, time 153.5 h postdose): 2.34 µg/mL | Plasma levels of isoxicam (dog 1942, time 192.0 h postdose): 1.28 µg/mL | Plasma levels of isoxicam (dog 1942, time 240.0 h postdose): 0.60 µg/mL | Plasma levels of isoxicam (dog 117668, row 192.0, actual time=193 hours): 0.85* µg/ml | Plasma levels of isoxicam (dog 117668, time 0.5 h postdose): 22.8 µg/mL | Plasma levels of isoxicam (dog 117668, time 1.0 h postdose): 42.6 µg/mL | Plasma levels of isoxicam (dog 117668, time 3.0 h postdose): 55.1 µg/mL | Plasma levels of isoxicam (dog 117668, time 4.0 h postdose): 59.3 µg/mL | Plasma levels of isoxicam (dog 117668, time 6.0 h postdose): 50.2 µg/mL | Plasma levels of isoxicam (dog 117668, time 8.0 h postdose): 63.0 µg/mL | Plasma levels of isoxicam (dog 117668, time 24.0 h postdose): 30.5 µg/mL | Plasma levels of isoxicam (dog 117668, time 32.0 h postdose): 29.6 µg/mL | Plasma levels of isoxicam (dog 117668, time 48.0 h postdose): 18.6 µg/mL | Plasma levels of isoxicam (dog 117668, time 72.0 h postdose): 10.7 µg/mL | Plasma levels of isoxicam (dog 117668, time 96.0 h postdose): 5.10 µg/mL | Plasma levels of isoxicam (dog 117668, time 153.5 h postdose): 1.27 µg/mL | Plasma levels of isoxicam (dog 117668, time 240.0 h postdose): 0.51 µg/mL | Plasma levels of isoxicam (dog 120064, row 192.0, actual time=193 hours): 2.17* µg/ml | Plasma levels of isoxicam (dog 120064, time 0.5 h postdose): 1.11 µg/mL | Plasma levels of isoxicam (dog 120064, time 1.0 h postdose): 15.5 µg/mL | Plasma levels of isoxicam (dog 120064, time 2.0 h postdose): 51.8 µg/mL | Plasma levels of isoxicam (dog 120064, time 3.0 h postdose): 46.3 µg/mL | Plasma levels of isoxicam (dog 120064, time 4.0 h postdose): 50.5 µg/mL | Plasma levels of isoxicam (dog 120064, time 6.0 h postdose): 49.6 µg/mL | Plasma levels of isoxicam (dog 120064, time 8.0 h postdose): 42.0 µg/mL | Plasma levels of isoxicam (dog 120064, time 24.0 h postdose): 31.3 µg/mL | Plasma levels of isoxicam (dog 120064, time 32.0 h postdose): 34.8 µg/mL | Plasma levels of isoxicam (dog 120064, time 48.0 h postdose): 21.5 µg/mL | Plasma levels of isoxicam (dog 120064, time 72.0 h postdose): 17.6 µg/mL | Plasma levels of isoxicam (dog 120064, time 96.0 h postdose): 9.39 µg/mL | Plasma levels of isoxicam (dog 120064, time 153.5 h postdose): 3.52 µg/mL | Plasma levels of isoxicam (dog 120064, time 240.0 h postdose): 1.26 µg/mL | AUC(0-inf) [1]: 2840 µg·h/mL | half-life (Mean of four dogs, oral 100 mg (free acid equivalents), elimination half-life, read-out: Half-life (converted)): 36.2 h | Cmax (Mean of four dogs, oral 100 mg (free acid equivalents), read-out: Cmax): 55300 ng/mL | Tmax [1]: 3 h | AUC(0-inf) [2]: 2910 µg·h/mL | half-life (dog 1930, oral 100 mg (free acid equivalents), elimination half-life, read-out: Half-life (converted)): 38.8 h | Cmax (dog 1930, oral 100 mg (free acid equivalents), read-out: Cmax): 51400 ng/mL | Tmax [2]: 2 h | AUC(0-inf) [3]: 2920 µg·h/mL | half-life (dog 1942, oral 100 mg (free acid equivalents), elimination half-life, read-out: Half-life (converted)): 34.4 h | Cmax (dog 1942, oral 100 mg (free acid equivalents), read-out: Cmax): 58600 ng/mL | Tmax [3]: 2 h | AUC(0-inf) [4]: 2590 µg·h/mL | half-life (dog 117668, oral 100 mg (free acid equivalents), elimination half-life, read-out: Half-life (converted)): 27 h | Cmax (dog 117668, oral 100 mg (free acid equivalents), read-out: Cmax): 59300 ng/mL | Tmax [4]: 6 h | AUC(0-inf) [5]: 2950 µg·h/mL | half-life (dog 120064, oral 100 mg (free acid equivalents), elimination half-life, read-out: Half-life (converted)): 44.8 h | Cmax (dog 120064, oral 100 mg (free acid equivalents), read-out: Cmax): 51800 ng/mL | Tmax [5]: 2 h | Cmax (four dogs, 100 mg oral, read-out: Mean Cmax): 56200 ± 5600 ng/mL | half-life (four dogs, 100 mg oral, read-out: Mean half-lives (elimination, linear regression of semilogarithmic data) (converted)): 36.2 ± 7.5 h | mean AUC^0-∞ (four dogs, 100 mg oral, trapezoidal rule extrapolated to infinity): 2840 ± 170 µg·h/mL | Plasma levels of isoxicam, Mean (time 0.5 h postdose): 15400 ng/mL | Plasma levels of isoxicam, Mean (time 1.0 h postdose): 32400 ng/mL | Plasma levels of isoxicam, Mean (time 2.0 h postdose): 53900 ng/mL | Plasma levels of isoxicam, Mean (time 3.0 h postdose): 50200 ng/mL | Plasma levels of isoxicam, Mean (time 4.0 h postdose): 53200 ng/mL | Plasma levels of isoxicam, Mean (time 6.0 h postdose): 49600 ng/mL | Plasma levels of isoxicam, Mean (time 8.0 h postdose): 47400 ng/mL | Plasma levels of isoxicam, Mean (time 12.0 h postdose): 38600 ng/mL | Plasma levels of isoxicam, Mean (time 24.0 h postdose): 32600 ng/mL | Plasma levels of isoxicam, Mean (time 32.0 h postdose): 28800 ng/mL | Plasma levels of isoxicam, Mean (time 48.0 h postdose): 22600 ng/mL | Plasma levels of isoxicam, Mean (time 72.0 h postdose): 15000 ng/mL | Plasma levels of isoxicam, Mean (time 96.0 h postdose): 8410 ng/mL | Plasma levels of isoxicam, Mean (time 153.5 h postdose): 2460 ng/mL | Plasma levels of isoxicam, Mean (time 192.0 h postdose (two dogs actually 193 hours)): 1460 ng/mL | Plasma levels of isoxicam, Mean (time 240.0 h postdose): 820 ng/mL | mean peak plasma concentration (reached at two hours postdose, 100 mg (free acid equivalents) per oral dose, dogs): 53.9±4.0 Ilg/ml | peak time (the final (fourth) animal, 100 mg oral): eight | peak time (three animals of four, 100 mg oral): two
